A short description of the data set: in vitro. The settings on record: human, hela cells, % viability.

For 57 compounds, viability results are on record in PMC12040169 (PLOS Biology, 2025).

Structures are written as SMILES.

For orientation: viability means a read-out of living cells in per cent, often relative to untreated cells. For `O=C(NCCc1nc2cccnc2n1-c1ccccc1)c1ccncc1` [CBK288599], the viability at 28.5 h, 10 µM came out at 90.7%.
Consider `CC(=O)c1c(CSc2ccccc2)nn2c1CCCC2` [CBK016543], for which the viability at 28.5 h, 10 µM was 78.9%.
The result for `O=C(NCCc1ccncc1)c1cccs1` [CBK056969] reads 107%; that for `O=C(NCC1CCCCC1)N1CCN(c2cc(C(F)(F)F)ccn2)CC1` [CBK162323], 103%; that for `C[S+]([O-])CCNC(=O)c1cc(-c2cccs2)no1` (stereo not drawn) [CBK282563], 84.5%.
Regarding `COc1ccc(S(=O)(=O)Nc2ccccc2C(=O)Nc2ccc(F)cc2)cc1OC` [CBK045404], the viability at 28.5 h, 10 µM worked out at 91.2%.
`CCNC(=O)N1CC2(CCN(Cc3csc(C)n3)CC2)c2ccccc21` [CBK126712]: the viability at 28.5 h, 10 µM was found to be 103%.
The result for `Cc1cc(S(=O)(=O)NCCCn2ccnc2)c(C)cc1Br` [CBK269525] reads 91.8%; that for `CN(C)CCCNc1cc(Cl)c(S(=O)(=O)N2CCCCC2)cc1C(=O)O` [CBK265784], 95.5%; that for `CCOC(=O)CCCCSc1c(CC)c(C)nc2ccccc12` [CBK153458T], 96%.
The result for `CCCn1cc(NC(=O)NCc2cc3c(cc2OC)CCC3)nn1` [CBK306614] reads 86.4%; that for `COCCNC(=O)c1nnn(-c2ccc(Br)cc2)c1C` [CBK300524], 93.3%.
The figure for `COc1cc(/C=N/n2cnnc2)ccc1OS(=O)(=O)c1ccccc1[N+](=O)[O-]` [CBK263814] is 89.3%; for `O=C(Nc1ccccc1-c1nc2ccccc2[nH]1)c1ccc(S(=O)(=O)N2CCCC2)cc1` [CBK263252] it is 88.5%; for `CCN1CC(C(=O)N2CCCCC2CN(C)C)CC1=O` (stereo not drawn) [CBK282056] it is 108%.
Take `CCN(CC)CCNC(=O)N1CCN(c2ccccc2)CC1` [CBK155202]: the viability at 28.5 h, 10 µM was 116%.
Take `Cc1c(C(=O)C2=C(O)C(=O)N(Cc3cccnc3)C2c2ccc(F)cc2)cnn1-c1ccccc1` (stereo not drawn) [CBK266541]: the viability at 28.5 h, 10 µM amounted to 105%.
For the compound `CCCCC(=O)N1CC(n2nc(-c3ccccc3)ccc2=O)C1` [CBK284615], the viability at 28.5 h, 10 µM stood at 95.6%.
In the case of `Cn1nc(C2CCCC2)cc1[C@H]1CN2CC[C@H]1C[C@@H]2CNS(=O)(=O)c1ccccc1` [CBK288741], the viability at 28.5 h, 10 µM was determined as 96.3%.
In the case of `CN(CC(=O)Nc1ccccc1C(N)=O)S(=O)(=O)c1ccc(Br)cc1` [CBK268648], the viability at 28.5 h, 10 µM turned out to be 98.7%.
The figure for `COc1ccccc1/C=N/NC(=O)COc1c(Br)cc(Br)cc1Br` [CBK261966] is 95.2%; for `O=C(NC(c1ccccc1)c1ccco1)C1CCN(CCN2C(=O)c3ccccc3C2=O)CC1` (stereo not drawn) [CBK148297] it is 120%; for `CC(C)(C)OC(=O)Nc1cc(Cl)ccc1C(=O)O` [CBK200024] it is 103%.
For `O=C(Cn1c(-c2cncs2)nc2ccccc21)NCc1ccccc1` [CBK264705], the viability at 28.5 h, 10 µM was 103%.
The figure for `Cc1nccn1CC1(O)CCN(Cc2ccccc2F)CC1` [CBK284961] is 105%; for `Cc1nn(C)c(C)c1CCc1nc(CN2CCN(C)CC2)no1` [CBK306510] it is 110%; for `Cc1ccc(C(=O)CN2CCC3(CC2)CC(=O)c2cc(Br)ccc2O3)cc1` [CBK162266] it is 91.2%.
For the compound `Cc1ccc(S(=O)(=O)c2cncc(N3CCNCC3)n2)cc1` [CBK051166C], the viability at 28.5 h, 10 µM came out at 101%.
The result for `CC(=C\C(=O)O)/C(=C/c1ccncc1)C(=O)O` [CBK278265N] reads 116%; that for `COc1ccccc1-c1ccc(CC2(C(=O)NCC3CCCCC3)CCOCC2)cc1` [CBK286519], 98.5%; that for `COc1ccc([C@@]23CC[C@@H](NC(=O)c4ccc(C(F)(F)F)cc4F)C[C@@H]2N(C)CC3)cc1OC` [CBK073976T], 108%.
For the compound `O=C(CN1CCN(Cc2ccccc2)CC1)Nc1ccc(C(F)(F)F)cc1Cl` [CBK074781], the viability at 28.5 h, 10 µM was determined as 103%.
As for `N#Cc1ccccc1CSc1nc(N2CCOCC2)nc(N2CCOCC2)n1` [CBK268998], the viability at 28.5 h, 10 µM was found to be 92.3%.
With `Cc1c(-c2ccc(Cl)cc2Cl)nc2ccccc2c1C(=O)NCCCc1ccccc1` [CBK262635], the viability at 28.5 h, 10 µM amounted to 89.4%.
For the compound `COc1ccc2[nH]c(C(=O)N3CCn4nc(CO)cc4C3)c(C)c2c1` [CBK307302], the viability at 28.5 h, 10 µM stood at 106%.
The figure for `O=C(Nc1ccc2[nH]ncc2c1)c1ccccc1Cl` [CBK000191] is 87.8%.
The result for `CCOC(=O)c1csc(C2CCCN2C(=O)CC2C=CCCC2)n1` (stereo not drawn) [CBK305407] reads 97.8%; that for `Nc1ncnc(Nc2ccc(F)cc2Cl)c1[N+](=O)[O-]` [CBK267255], 93.1%.
The result for `CCOC(=O)Cc1cc(O)nc(NC(=N)Nc2ccc(C)cc2C)n1` [CBK264986] reads 104%; that for `O=C(CN1CCCC1)NC1CCCc2c1cnn2-c1ccc(F)cc1` (stereo not drawn) [CBK283930], 91.5%.
Regarding `O=C(NCC1(c2ccccc2F)CCOCC1)[C@@H]1C[C@@H]2C=C[C@H]1C2` [CBK281552], the viability at 28.5 h, 10 µM was 91.6%.
Take `Cn1c(C(O)c2ccccc2)n[nH]c1=S` (stereo not drawn) [CBK012984]: the viability at 28.5 h, 10 µM is 117%.
As for `O=C(NCCCc1ccccn1)C1(c2ccccc2F)CC1` [CBK283155], the viability at 28.5 h, 10 µM amounted to 93.6%.
The result for `O=C(NCc1ccncc1)c1cc(-c2ccc(Cl)cc2)on1` [CBK116559] reads 85.7%; that for `CC(=O)N1C[C@@H](c2cccc(C)c2)[C@@H]2CN(Cc3ccncc3)CC[C@@H]21` [CBK283370], 96.1%; that for `O=C(Nc1ccc(NC(=O)c2ccccc2O)cc1)c1cnc(-c2ccccc2)c(-c2ccncc2)c1` [CBK037490], 80.5%.
The figure for `COc1ccc(Cl)cc1N1CCN(Cc2cc(OC)c(OC)c(OC)c2)CC1` [CBK126406] is 43.3%.
With `O=C1S/C(=C\c2ccc(F)c(Br)c2)C(=O)N1c1cccc(Cl)c1` [CBK095450], the viability at 28.5 h, 10 µM is 87.7%.
As for `CSCCCNC(=O)c1ccc(-c2ccc(OC(F)(F)F)cc2)nc1` [CBK156216], the viability at 28.5 h, 10 µM was 95%.
The figure for `c1cncc(-c2nccnc2NCc2ccco2)c1` [CBK037204] is 102%.
The result for `NS(=O)(=O)c1ccc(C(=O)N2CCC3(CCN(C(=O)c4cc(F)c(F)cc4F)C3)C2)cc1` (stereo not drawn) [CBK131385] reads 104%; that for `c1ccc(CCNc2cncc(-c3cc4ccccc4o3)n2)nc1` [CBK066036], 96.5%.
The figure for `O=C(Cc1ccccc1)N1CCN(S(=O)(=O)N2CCCCC2)CC1` [CBK269097] is 85.2%; for `CN(C)CCCN1C(=O)C(O)=C(C(=O)c2ccc(Br)cc2)C1c1cccnc1` (stereo not drawn) [CBK264589] it is 105%; for `COc1ccc(-c2nnc(SCC(=O)c3ccc(F)cc3)n2C2CCCCC2C)cc1` (stereo not drawn) [CBK297494] it is 89.8%.
In the case of `O=S(=O)(c1c(Cl)cc(C(F)(F)F)cc1Cl)N1CCOCC1` [CBK057736], the viability at 28.5 h, 10 µM stood at 88.8%.
The result for `CCC1CCCCN1C(=O)c1cc2ccccc2s1` (stereo not drawn) [CBK074211] reads 85.3%.
